# System: MCF-7 cell-derived mammospheres
# Assay: Mammosphere formation, MCF-7-derived
# Type: cell-based, human
# Conditions: volatile materials exposed to MCF-7 (FIG. 5B)
# Procedure: FIGS. 4A, 4B and 4C show effects of PAA on formation of MCF-7 cell-derived mammospheres. Primary mammospheres were cultured together with PAA (0.2 and 0.5 mM) or DMSO;
# Human breast cancer cells, i.e., MCF-7 and MDA-MB-231, were commercially obtained from American Type Culture Collection (ATCC; Manassas, Va., USA). MCF-7 and MDA-MB-231 cells were cultured in Dulbecco's modified essential medium (DMEM; Hyclone, Logan, Utah, USA) containing 10% fetal bovine serum (FBS; Hyclone), 100 U/mL of penicillin, and 100 μg/mL of streptomycin (Hyclone). The MCF-7 and MDA-MB-231 cells were maintained at 37° C. in a 5% CO2-containing humidified incubator. The cells were plated at a density of 1×10^6 on a 10 cm petri dish. In order to establish primary mammospheres, single cell-suspended MCF-7 and MDA-MB-231 cells were seeded at a density (cells/well) of 3.5×10^4 to 4×10^4 and 0.5×10^4 to 1×10^4, respectively, on ultra-low attachment 6-well plates containing 2 ml complete MammoCult™ medium (StemCell Technologies, Vancouver, BC, Canada). The complete MammoCult™ medium was supplemented with 4 μg/mL of heparin, 0.48 μg/mL of hydrocortisone, 100 U/mL of penicillin and 100 μg/mL of streptomycin. The cells were cultured for 7 days in a 37° C. 5% CO2 incubator.
# At 7 days of culture, the cell culture plate was disposed on a scanner (Epson Perfection V700 PHOTO, Epson Korea, Co, Seoul, Korea) to obtain an 8 bit gray scale image of mammospheres. The image was obtained at a low resolution (300 dpi) using an NICE software program and downloaded from ftp://ftp.nist.gov/pub/physics/mLclarke/NICE. For counting, preferred numbers of rows and columns (for example, 2×3 of 6-well plate) were selected to form regions of interest (ROIs), and an oval setting of the NICE program was selected and then respective ROIs were defined by moving the shapes of provided ROIs and controlling the sizes thereof. The background signal of the image was negated using a critical algorithm and the selected image was automatically counted. Regarding the mammosphere formation analysis, formation efficiency of mammospheres (MFE, %) was determined in accordance with the number of mammospheres per well/the total number of cells plated per well×100.
row,Structure (SMILES),formation of primary mammospheres derived from MCF-7 cells
1,O=CCCc1ccccc1 [3-phenylpropionaldehyde],inhibited
2,CC(C=O)c1ccccc1 (centres unmarked) [2-phenylpropionaldehyde],potently inhibited

# From patent publication US11324706B2, “Composition for inhibiting growth of breast cancer stem cells containing phenylacetaldehyde” (JEJU NATIONAL UNIVERSITY INDUSTRY-ACADEMIC COOPERATION …, priority 2016, dated 2022)
